Laboratory results reported in ChEMBL document CHEMBL4373664, “Importance of lipophilicity for potent anti-herpes simplex virus-1 activity of α-hydroxytropolones” (Medchemcomm, 2019).
Active and inactive are the calls of the source. No cut-off for these calls is given here.

Columns and labels:
Human alphaherpesvirus 1 [1] = assay: Antiviral activity against HSV-1 infected in African green monkey Vero cells assessed as suppression of viral replication at 1 uM after 24 hrs by plaque reduction assay based phase contrast microscopy; type: functional
Human alphaherpesvirus 1 [2] = assay: Antiviral activity against HSV-1 infected in African green monkey Vero cells assessed as suppression of viral replication at 0.2 uM after 24 hrs by plaque reduction assay based phase contrast microscopy; type: functional
[3] = Cytotoxicity against African green monkey Vero cells incubated for 24 hrs by MTT assay; type: cell-based; settings: chlorocebus sabaeus
Human alphaherpesvirus 1 [4] = assay: Antiviral activity against HSV-1 infected in African green monkey Vero cells assessed as suppression of viral replication at 5 uM after 24 hrs by plaque reduction assay based phase contrast microscopy; type: functional
Human alphaherpesvirus 1 [5] = assay: Antiviral activity against HSV-1 infected in African green monkey Vero cells assessed as suppression of viral replication after 24 hrs by plaque reduction assay based phase contrast microscopy; type: functional, organism-based; settings: Human alphaherpesvirus 1, Vero
[6] = Therapeutic index, ratio of CC50 for African green monkey Vero cells to EC50 for HSV-1 infected in African green monkey Vero cells; type: toxicity; settings: read-out: Ratio CC50/EC50
[7] = Inhibition of NTS in HSV-1 infected in African green monkey Vero cells assessed as suppression of viral replication by measuring viral titer after 24 hrs by plaque reduction assay based phase contrast microscopy; type: cell-based; settings: Human alphaherpesvirus 1, Vero
[8] = Inhibition of NTS in HSV-2 infected in African green monkey Vero cells assessed as suppression of viral replication by measuring viral titer after 24 hrs by plaque reduction assay based phase contrast microscopy; type: cell-based; settings: Human alphaherpesvirus 2, Vero
Human alphaherpesvirus 1 [9] = assay: Antiviral activity against HSV-1 infected in African green monkey Vero cells assessed as suppression of viral replication at 1 uM after 24 hrs by plaque reduction assay based phase contrast microscopy relative to control; type: functional
[10] = Cytotoxicity against African green monkey Vero cells incubated for 72 hrs by MTS assay; type: cell-based; settings: chlorocebus sabaeus

| EC50 (Human alphaherpesvirus 1 [5]) [nM] | SMILES | log(activity) (Human alphaherpesvirus 1 [1]) | log(activity) (Human alphaherpesvirus 1 [2]) | CC50 at 24 h [3] [nM] | log(activity) (Human alphaherpesvirus 1 [4]) | selectivity ratio [6] | EC50 [7] [nM] | EC50 [8] [nM] | fold change (FC) (Human alphaherpesvirus 1 [9]) | CC50 at 72 h [10] [nM] |
| --- | --- | --- | --- | --- | --- | --- | --- | --- | --- | --- |
| 440 | CCCCCCCC(=O)c1cc(O)c(=O)c(O)cc1C | 0.2 | 0.13 | 81000 | 4.84 | 185 | – | – | – | – |
| – | CC(C)c1ccc(O)c(=O)c(O)c1 [BETA-THUJAPLICINOL] | – | – | > 100000 | – | – | 2000 | 1700 | – | – |
| – | COc1ccc(C(=O)c2cc(O)c(=O)c(O)cc2C)cc1 | 0.92 | 0.02 | – | 3.94 | – | – | – | – | – |
| 26000 | Cc1cc(O)c(=O)c(O)cc1C(=O)C(C)C | inactive | inactive | 91000 | -0.01 | 3.6 | – | – | – | – |
| – | Cc1cc(O)c(=O)c(O)cc1C(=O)c1ccc2ccccc2c1 | 3.82 | 0.28 | – | 4.08 | – | – | – | >10 | – |
| – | Cc1cc(O)c(=O)c(O)cc1S(=O)(=O)c1ccc(-c2ccccc2)cc1 | -0.34 | inactive | – | 4.44 | – | – | – | – | – |
| – | Cc1cc(O)c(=O)c(O)cc1-c1ccc(-c2ccccc2)cc1 | 4.09 | -0.05 | > 100000 | 4.08 | – | 180 | 210 | – | > 100000 |
| – | Cc1cc(O)c(=O)c(O)cc1S(=O)(=O)c1ccccc1 | 0.81 | inactive | – | 0.34 | – | – | – | – | – |
| – | Cc1cc(O)c(=O)c(O)cc1-c1ccc(-c2ccc3ccccc3c2)cc1 | 0.57 | -0.03 | – | 4.15 | – | – | – | – | – |
| – | Cc1cc(O)c(=O)c(O)cc1C(=O)c1ccccc1O | 0.86 | 0.1 | – | 3.86 | – | – | – | – | – |
| 630 | Cc1cc(O)c(=O)c(O)cc1C(=O)C1CCCCC1 | 0.76 | 0.62 | 73000 | 5.14 | 116 | – | – | – | – |
| 60 | Cc1cc(O)c(=O)c(O)cc1C(=O)c1ccc2ccc3cccc4ccc1c2c34 | 5.01 | 0.93 | > 100000 | 5.76 | > 1800 | – | – | – | – |
| 1100 | CCCCCCCCCC(=O)c1cc(O)c(=O)c(O)cc1C | 0.07 | inactive | > 100000 | 3.78 | > 92 | – | – | – | – |
| 350 | CCCCCCCCCCCC(=O)c1cc(O)c(=O)c(O)cc1C | 3.23 | 0.29 | 95000 | 4.84 | 255 | – | – | >10 | – |
| – | Cc1cc(O)c(=O)c(O)cc1C(=O)c1ccco1 | 0.41 | -0.1 | – | 4.52 | – | – | – | – | – |
| – | CC(C)=CCc1ccc(=O)c(O)cc1C(C)C | – | – | 100000 | – | – | 240 | 220 | – | – |

| EC50 (Human alphaherpesvirus 1 [5]) [nM] | SMILES | log(activity) (Human alphaherpesvirus 1 [1]) | log(activity) (Human alphaherpesvirus 1 [2]) | CC50 at 24 h [3] [nM] | log(activity) (Human alphaherpesvirus 1 [4]) | selectivity ratio [6] | EC50 [7] [nM] | EC50 [8] [nM] | fold change (FC) (Human alphaherpesvirus 1 [9]) | CC50 at 72 h [10] [nM] |
| --- | --- | --- | --- | --- | --- | --- | --- | --- | --- | --- |
| – | Cc1cc(O)c(=O)c(O)cc1C(=O)c1cccc(-c2cccc3ccccc23)c1 | 3.15 | 0.15 | – | 4.6 | – | – | – | – | – |
| – | Cc1cc(O)c(=O)c(O)cc1C(=O)c1cccc([N+](=O)[O-])c1 | 0.9 | 0.23 | – | 4.2 | – | – | – | – | – |
| – | Cc1cc(O)c(=O)c(O)cc1C(=O)c1ccc(-c2ccc3ccccc3c2)cc1 | 3.54 | 1.34 | – | 4.28 | – | – | – | – | – |
| – | Cc1cc(O)c(=O)c(O)cc1C(=O)c1cccc(-c2ccc3ccccc3c2)c1 | 3.03 | 0.14 | – | 4.11 | – | – | – | – | – |
| – | Cc1cc(O)c(=O)c(O)cc1-c1cccc(-c2ccc3ccccc3c2)c1 | 0.66 | 0.06 | – | 4.1 | – | – | – | – | – |
| 1200 | CC(=O)c1cc(O)c(=O)c(O)cc1C | inactive | inactive | > 100000 | 0.48 | > 83 | – | – | – | – |
| – | Cc1cc(O)c(=O)c(O)cc1C(=O)c1ccc(Br)cc1 | 0.42 | 0.09 | – | 5.4 | – | – | – | – | – |
| – | Cc1cc(O)c(=O)c(O)cc1-c1cccc(-c2cccc3ccccc23)c1 | 4 | 0.04 | – | 4.02 | – | – | – | – | – |
| – | Cc1cc(O)c(=O)c(O)cc1C(=O)c1cccc(Br)c1 | 0.21 | 0.09 | – | 5.46 | – | – | – | – | – |
| – | Cc1cc(O)c(=O)c(O)cc1C(=O)c1ccccc1 | 0.11 | inactive | – | 4.21 | – | – | – | – | – |
| 140 | CCCCCCCCCCCCCC(=O)c1cc(O)c(=O)c(O)cc1C | 1.58 | 0.36 | 91000 | 4.31 | 631 | – | – | >10 | – |
| – | Cc1cc(O)c(=O)c(O)cc1-c1cccc(-c2ccccc2)c1 | 4.26 | 0.02 | – | 4.28 | – | – | – | – | – |
| – | C=C(C)[C@@H]1CCc2c(c(C)cc(O)c(=O)c2O)C1 | – | – | 100000 | – | – | 350 | 580 | – | – |
| 170 | Cc1cc(O)c(=O)c(O)cc1C(=O)c1ccc(-c2ccccc2)cc1 | 4.86 | 0.43 | > 100000 | 4.72 | > 600 | 120 | 81 | – | > 100000 |
| – | Cc1cc(O)c(=O)c(O)cc1C(=O)c1ccc([N+](=O)[O-])cc1 | 0.6 | 0.03 | – | 3.91 | – | – | – | – | – |
| – | Cc1cc(O)c(=O)c(O)cc1C(=O)c1cccs1 | -0.06 | 0.16 | – | 0.92 | – | – | – | – | – |
